Results reported in patent publication US5264355A, “Methlating enzyme from streptomyces MA6858” (Merck & Co., Inc., priority 1992, dated 1993).

Assays:
[1] = target: T1, 31-O-desmethylFK-506 O-methyltransferase (FKMT) (Streptomyces tacrolimicus, UniProt P74838); assay: FKMT O-methyltransferase assay / kinetic analysis; assay type: biochemical, Streptomyces sp. MA6858; conditions: substrate A as variable, above 50 uM; fixed SAM 220 μM
T1 construct: endogenous in cells; host or cells: Native enzyme purified in house from mycelium of Streptomyces MA6858 (ATCC 55098), not recombinant; for the kinetics, purified through the second MonoQ column
T1 sequence (P74838 1-260): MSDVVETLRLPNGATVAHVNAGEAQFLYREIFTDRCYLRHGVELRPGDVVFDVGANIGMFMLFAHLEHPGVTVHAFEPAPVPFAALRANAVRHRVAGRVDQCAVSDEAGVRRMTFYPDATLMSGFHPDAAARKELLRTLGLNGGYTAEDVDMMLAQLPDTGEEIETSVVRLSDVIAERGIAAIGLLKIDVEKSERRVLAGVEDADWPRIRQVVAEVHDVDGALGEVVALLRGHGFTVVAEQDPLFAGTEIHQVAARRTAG
Experimental: (§1) This enzyme, is SAM dependent and has requirement for Mg^+2 with optimum concentration of 4 mM. […] The temperature effect on the methylation reaction was examined at 0°, 22°, 24°, 34°, 37°, and 44° C. The optimum temperature for the reaction was determined to be at 34° C. Above this temperature there was a problem with substrate decomposition. Under the established incubation condition in which 31 uM of substrate A and 220 uM of SAM were used, the rate of the methylation reaction was linear up to 35 min with protein concentration up to 100 ug.
(§2) For the kinetic studies, a preparation of the FKMT enzyme which had been purified through the second MonoQ column chromatography was used. Under conditions for the initial velocity measurement, apparent Km and Vmax were determined for 31-O-desmethyFK-506 (substrate A) at one saturating concentration of SAM ([…]). […]
(§3) The assay was carried out in 1 ml. mixture containing 0.025 mM 31-desmethylFK-506, 4 mM MgSO4 and different quantities of the enzyme source in 50 mM phosphate buffer, pH 7.5. […] The plastic sheet was developed in chloroform:methanol (9:1) and area showing standard FK-506 under UV-light was cut and the radioactivity in the cut-strip was measured and the amount of the product formed was calculated.

in vitro immune systems = conditions: J. Antibiotics 1987, 40, 1256; cited from earlier work
[2] = substrate: C=CC[C@@H]1/C=C(\C)C[C@H](C)C[C@H](OC)[C@H]2O[C@@](O)(C(=O)C(=O)N3CCCC[C@H]3C(=O)O[C@H](/C(C)=C/[C@@H]3CC[C@@H](O)[C@H](O)C3)[C@H](C)[C@@H](O)CC1=O)[C@H](C)C[C@@H]2OC; assay: FKMT O-methyltransferase assay / kinetic analysis; assay type: biochemical, Streptomyces sp. MA6858; conditions: other: FKMT purified through second MonoQ column, initial velocity, pH 7.5
Experimental: as §1, §2, §3

C=CC[C@@H]1/C=C(\C)C[C@H](C)C[C@H](OC)[C@H]2O[C@@](O)(C(=O)C(=O)N3CCCC[C@H]3C(=O)O[C@H](/C(C)=C/[C@@H]3CC[C@@H](O)[C@H](O)C3)[C@H](C)[C@@H](O)CC1=O)[C@H](C)C[C@@H]2OC [31-O-desmethyFK-506]
substrate inhibition [1]: no substrate inhibition

C=CC[C@@H]1/C=C(\C)C[C@H](C)C[C@H](OC)[C@H]2O[C@@](O)(C(=O)C(=O)N3CCCC[C@H]3C(=O)O[C@H](/C(C)=C/[C@@H]3CC[C@@H](O)[C@H](OC)C3)[C@H](C)[C@@H](O)CC1=O)[C@H](C)C[C@@H]2OC [FR-900506, 17-allyl-1,14-dihydroxy-12-[2'-(4"-hydroxy-3"-methoxycyclohexyl)-1'-methylvinyl]-23,25-dimethoxy-13,19,21,27-tetramethyl-11,28-dioxa-4-azatricyclo-[22.3.1.0^4,9]-octacos-18-ene-2,3,10,16-tetraone]
effectiveness relative to cyclosporin in the suppression of in vitro immune systems (in vitro immune systems): 100 times

B1: 31-O-desmethylFK-506 O-methyltransferase (FKMT) (Streptomyces tacrolimicus) (protein)
chain: MSDVVETLRLPNGATVAHVNAGEAQFLYREIFTDRCYLRHGVELRPGDVVFDVGANIGMFMLFAHLEHPGVTVHAFEPAPVPFAALRANAVRHRVAGRVDQCAVSDEAGVRRMTFYPDATLMSGFHPDAAARKELLRTLGLNGGYTAEDVDMMLAQLPDTGEEIETSVVRLSDVIAERGIAAIGLLKIDVEKSERRVLAGVEDADWPRIRQVVAEVHDVDGALGEVVALLRGHGFTVVAEQDPLFAGTEIHQVAARRTAG
notes: Washed mycelium was used for the preparation of the cell-free extract; endogenous in cells; host or cells: Native enzyme purified in house from mycelium of Streptomyces MA6858 (ATCC 55098), not recombinant; for the kinetics, purified through the second MonoQ column
Km ([2]; saturating SAM (220 uM)): 23.21 µM | Vmax ([2]; saturating SAM (220 mM as printed)): 2.33 nmol/mg/min
